# Laboratory results as given in patent publication EP1956016A1, “Bicyclic acyltryptophanols” (Bayer Schering Pharma Aktiengesellschaft, priority 2006, dated 2008).
# Target: T1, human FSH receptor (Homo sapiens, UniProt P23945)
# T1 construct: expressed in transfected cells; host or cells: CHO cells (hFSHR clone 16)
# T1 sequence (P23945 18-695): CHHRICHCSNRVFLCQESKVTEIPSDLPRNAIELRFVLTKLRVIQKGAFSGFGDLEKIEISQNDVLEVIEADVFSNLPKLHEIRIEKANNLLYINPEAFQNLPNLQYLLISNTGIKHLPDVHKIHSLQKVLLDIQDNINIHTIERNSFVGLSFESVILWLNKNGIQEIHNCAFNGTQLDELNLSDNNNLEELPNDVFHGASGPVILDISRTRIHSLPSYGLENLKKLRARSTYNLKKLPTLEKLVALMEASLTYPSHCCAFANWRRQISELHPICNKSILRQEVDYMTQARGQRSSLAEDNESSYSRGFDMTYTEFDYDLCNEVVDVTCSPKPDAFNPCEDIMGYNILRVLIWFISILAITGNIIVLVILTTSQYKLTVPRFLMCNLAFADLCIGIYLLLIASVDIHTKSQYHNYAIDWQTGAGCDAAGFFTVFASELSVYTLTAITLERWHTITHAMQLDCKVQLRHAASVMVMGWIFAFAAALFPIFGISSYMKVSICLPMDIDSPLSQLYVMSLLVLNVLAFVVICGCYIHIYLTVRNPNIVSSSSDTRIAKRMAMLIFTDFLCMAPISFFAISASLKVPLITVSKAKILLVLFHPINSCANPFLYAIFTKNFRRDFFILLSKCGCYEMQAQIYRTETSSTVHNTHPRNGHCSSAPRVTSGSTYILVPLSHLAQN
# Experiment: HTRF assay for measuring cAMP in cells (FSH antagonism)
# Assay type: cell-based
# Conditions: hFSHR clone 16 cells (CHO cells stably transfected with the human FSH receptor); in the presence of 1 e-9 mol/l hFSH; 37°C for 2h
# Method: HTRF assay for measuring cAMP in cells
# The method is based on a competitive immunoassay between native cAMP, which has been produced by the cells, and cAMP which is labelled with XL665. The tracer binding was visualized by a monoclonal antibody, anti-cAMP labelled with cryptate [HTRF = homogeneous time-resolved fluorescence].
# The specific signal is inversely proportional to the cAMP concentration of the samples employed.
# The 665nm/ 620nm fluorescence ratio was evaluated.
# The following material was used: 96-well plates for the tissue culture, 96-well plates with black edge and black base (e.g. Fluotrac 600 from Greiner), 96-well plates for the substance dilutions of polypropylene and CAMP Femtomolar (4000wells Kit, CIS Bio International # 62AM1PEC).
# The following reagents were used: BSA (bovine serum albumin) Fraction V protease-free, IBMX (3-isobutyl-1-methylxanthine), hFSH (human follicle stimulating hormone), Triton X-100 analytical grade, potassium fluoride analytical grade, G 418 (Geneticin) and Accutase.
# Buffer 1 (washing and testing buffer) contained PBS, 1 mM CaCl2, 1 mM MgCl2, 0.2% glucose; 0.1% BSA, 1 mM IBMX.
# Buffer 2 (2x lysis buffer) contained 1 % Triton X-100 in PBS (without CaCl2 and MgCl2).
# Buffer 3 (assay buffer) contained 50 mM potassium phosphate buffer (pH 7.0); 800 mM potassium fluoride; 0.2% BSA (always added fresh).
# On day 1, the cells were seeded in 96-well plates (3x10^4 cells per well hFSHR clone 16 cells (CHO cells stably transfected with the human FSH receptor in 150 µl of medium). The next day, test substance dilutions were made up. For this purpose, all the substances were diluted in ice-cold buffer 1 (with or without hFSH), and the substance dilutions were placed on ice until applied to the cells.
# The cell supernatant was then aspirated off, and the cells were washed 2x with 200 µl of buffer 1. The cells were treated with 60 µl of the appropriate substance concentrations at 37°C for 2h. The cells were then lysed with 60 µl of buffer 2 (put onto the supernatant) (on a plate shaker at RT for 30 min).
# The test conjugates (XL-665 and anti-cAMP cryptate) were diluted in buffer 3 in accordance with the manufacturers' information. The actual mixture for measurement was pipetted into a black 96-well plate (in each case 15 µl of the cell lysate diluted with 35 µl of buffer 1; firstly 25 µl of XL-665 conjugate were pipetted and, after 10 min, 25 µl of the anti-cAMP cryptate were added). This is followed by incubation at RT for 90 minutes. The measurement was carried out in a PheraStar (BMG).
# Tissue culture conditions
# 1) hFSHr clone 16 Ham's F12 PSG 10% FCS 700 µg/ml G 418 (Geneticin) from PAA.
# Dose-effect curve (hFSH) for the human receptor: 1 e-8, 3e-9, 1 e-9, 3e-10, 1e-10, 3e-11, 1e-11, 3e-12 mol/l.
# The test substances were employed in suitable dilutions in the absence (test for agonism) and in the presence of 1 e-9 mol/l hFSH.
# The values of the well ratio were averaged and then entered directly in SigmaPlot versus the concentrations. The maximum and minimum values were determined for each plate, and half the difference is to be regarded as IC50.
row,IC50,SMILES
1,130 nM,"CNC(=O)c1ccc(-c2cc3c(c(C(=O)N[C@@H](CO)Cc4c[nH]c5ccccc45)c2)OCC=C3)cc1Cl [Example 2, 6-(3-Chloro-4-methylcarbamoyl-phenyl)-2H-chromene-8-carboxylic acid [(R)-2-hydroxy-1-(1H-indol-3-ylmethyl)-ethyl]-amide]"
2,450 nM,"Cc1ccccc1C#Cc1cc2c(c(C(=O)N[C@@H](CO)Cc3c[nH]c4ccccc34)c1)OCC=C2 [Example 4, 6-o-Tolylethynyl-2H-chromene-8-carboxylic acid [(R)-1-hydroxymethyl-2-(1H-indol-3-yl)-ethyl]-amide]"
3,150 nM,"CCC1Cc2cc(-c3ccc(OC)c(OC)c3)cc(C(=O)N[C@@H](CO)Cc3c[nH]c4ccccc34)c2O1 (stereo partly drawn) [Example 13, 5-(3,4-Dimethoxy-phenyl)-2-ethyl-2,3-dihydro-benzofuran-7-carboxylic acid [(R)-1-hydroxymethyl-2-(1H-indol-3-yl)-ethyl]-amide]"
4,450 nM,"CNC(=O)c1ccc(-c2cc3c(c(C(=O)N[C@@H](CO)Cc4c[nH]c5ccccc45)c2)OCCO3)cc1Cl [Example 14, 7-(3-Chloro-4-methylcarbamoyl-phenyl)-2,3-dihydro-benzo[1,4]dioxine-5-carboxylic acid [(R)-2-hydroxy-1-(1 H-indol-3-ylmethyl)-ethyl]-amide]"

# The next lines start with the compound.
row,SMILES,IC50
1,"C=CC1Cc2cc(-c3ccc(OC)c(OC)c3)cc(C(=O)N[C@@H](CO)Cc3c[nH]c4ccccc34)c2O1 (mixture of isomers) [Example 12, 5-(3,4-Dimethoxy-phenyl)-2-vinyl-2,3-dihydro-benzofuran-7-carboxylic acid [(R)-1-hydroxymethyl-2-(1H-indol-3-yl)-ethyl]-amide]",350 nM
2,"CNC(=O)c1cc(F)cc(-c2cc3c(c(C(=O)N[C@@H](CO)Cc4c[nH]c5ccccc45)c2)OC(C)(C)C=C3)c1 [Example 8, 6-(3-Fluoro-5-methylcarbamoyl-phenyl)-2,2-dimethyl-2H-chromene-8-carboxylic acid [(R)-2-hydroxy-1-(1 H-indol-3-yl-methyl)-ethyl]-amide]",14 nM
3,"COc1cc(-c2cc3c(c(C(=O)N[C@@H](CO)Cc4c[nH]c5ccccc45)c2)OCC3)cc(F)c1F [Example 20, 5-(3,4-Difluoro-5-methoxy-phenyl)-2,3-dihydro-benzofuran-7-carboxylic acid [(R)-2-hydroxy-1-(1H-indol-3-ylmethyl)-ethyl]-amide]",2000 nM
